The text below walks through data of patent US8435978B2, “Substituted sulfonamide compounds” (Gruenenthal GmbH, priority 2006, dated 2013).

Experiment [1] relates to Bradykinin Receptor 1 (B1R)-mediated formation of IL-6 in IMR-90 fibroblasts. As to the kind of experiment: Inhibition of the B1R-mediated formation of IL-6 in IMR-90 fibroblasts (IL-6 ELISA). Format: cell-based, human. The conditions noted are these: antagonist 10 μM. From the text:
The pro-inflammatory cytokines TNFα (or IL-1) lead in various cell types, such as, for example, fibroblasts, to an activation, which brings about inter alia enhanced expression of B1R. Subsequent stimulation of these cells with a B1R agonist results in the formation of further pro-inflammatory cytokines, such as, for example, IL-6. The chronification of inflammations is thereby promoted. Treatment with a B1R antagonist should lead to inhibition of the B1R agonist-induced IL-6 formation. By way of example, a B1R antagonist identified in the FLIPR assay was tested in this respect.
The human fibroblast cell line IMR-90 (ATCC, CCL-186) was passaged in culture medium (Ham's F12 nutrient mixture, Gibco Invitrogen GmbH, Karlsruhe Germany with 10% FBS, fetal bovine serum, Gibco, Invitrogen GmbH, Karlsruhe Germany; 0.1 mM non-essential amino acids, Gibco, 11140-035, 1 mM sodium pyruvate, Euro Clone, ECM0542D; 1.5 g/l sodium bicarbonate, Euro Clone, ECM0980D) on 80 cm^2 bottles (Nunc; 178905) (ratio:1:2 to 1:6; medium replaced every 3-4 days) and plated out for experiments on 96-well plates (Greiner bio-one; No. 655180) with 1×10^5 cells per well. The cells are incubated overnight at 37° C. and 5% CO2.
For activation with TNFα (human, recombinant, expressed in E. coli, SIGMA-ALDRICH T6674, 10 ng/ml) alone or TNFα combined with the human B1R agonist Lys-Des-Arg^9-bradykinin (Lys-Des-Arg^9-BK), the IMR-90 fibroblasts were incubated overnight at 37° C. and 5% CO2 in culture medium. The final concentrations of Lys-Des-Arg^9-BK were 1000 nM or 10 nM. Some IMR-90 stimulation batches additionally contained the B1R antagonist of Example 8 in a final concentration of 10 μM. 24 hours after activation, in each case 150 μl of culture medium were removed from all the different stimulation batches and were transferred to a new plate and frozen. After thawing of the supernatants, the IL-6 content was determined by means of a commercially available IL-6 Elisa.
ELISA Assay (Procedure, Modified According the Manufacturer's Specifications):
Elisa kit: from: BIOSOURCE; CytoSets™, Art. No.: CHC 1264
The above-described processes were carried out with Example compound 8.

The target in experiment [2] is T1, B1R receptor of the rat (Rattus norvegicus, UniProt P97583).
T1 construct: host or cells: CHO K1 cells (Chinese hamster ovary), stably transfected
T1 sequence (P97583 1-337): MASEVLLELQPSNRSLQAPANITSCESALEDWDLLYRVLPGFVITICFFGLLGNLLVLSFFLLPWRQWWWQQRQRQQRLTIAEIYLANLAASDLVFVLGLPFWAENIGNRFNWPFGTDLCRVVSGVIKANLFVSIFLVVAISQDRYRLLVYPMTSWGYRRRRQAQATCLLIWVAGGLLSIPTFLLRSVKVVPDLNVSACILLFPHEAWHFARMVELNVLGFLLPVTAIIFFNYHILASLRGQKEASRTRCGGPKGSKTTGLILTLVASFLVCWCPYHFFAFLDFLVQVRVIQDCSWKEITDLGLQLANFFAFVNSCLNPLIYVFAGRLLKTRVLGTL
As to the kind of experiment: Functional study on the bradykinin receptor 1 (B1R), FLIPR Ca2+ assay, rB1R cells. Format: cell-based. The conditions noted are these: test substance 10 μM; rB1R CHO K1 cells; agonist Des-Arg9-bradykinin 100 nM; % inhibition compared with the maximum achievable inhibition. An outline of the steps:
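FLIPR Ca2+ read-out (Fluo-4, peak fluorescence) in stably transfected CHO K1 cells. Compounds at 10 μM, then 10 min later agonist challenge: human B1R with Lys-Des-Arg9-bradykinin 0.5 nM, rat B1R with Des-Arg9-bradykinin 100 nM; reported as % activation or % of maximal inhibition.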

Setting [3] is: TNFα 10 ng/ml, 24 hours after activation.

Consider `COc1cc(C)c(S(=O)(=O)N2CCCCC2COCC(=O)N2CCN(C3CCN(C)CC3)CC2)c(C)c1` (stereo not drawn) [Example 8, 2-[1-(4-methoxy-2,6-dimethyl-phenylsulfonyl)-piperidin-2-ylmethoxy]-1-[4-(1-methyl-piperidin-4-yl)-piperazin-1-yl]-ethanone], for which the “inhibition of the activation of IL-6 formation” value in experiment [1] (TNFα + relatively high dose of Lys-Des-Arg^9-BK (1000 nM)) is on record as “still partially inhibited”. For the same molecule, the “inhibition of the activation of IL-6 formation” value in experiment [1] (TNFα + relatively low dose of Lys-Des-Arg^9-BK (10 nM)) was “eliminated almost completely”. For the same molecule, in experiment [1] (setting [3]), the “Production of IL-6 (pg/ml) by IMR-90 fibroblasts, TNFα + Lys-Des-Arg^9-BK (10 nM)” value stood at 119 pg/mL; the “Production of IL-6 (pg/ml) by IMR-90 fibroblasts, TNFα + Lys-Des-Arg^9-BK (1000 nM)” value is 483 pg/mL; the “Production of IL-6 (pg/ml) by IMR-90 fibroblasts, TNFα alone” value stood at 136 pg/mL. In addition, the “B1R Antagonism, rat [10 μM] % Inhibition” value in experiment [2] is 106.6%.
